ChEMBL document CHEMBL4616613, “Phosphine boranes as less hydrophobic building blocks than alkanes and silanes: Structure-property relationship and estrogen-receptor-modulating potency of 4-phosphinophenol derivatives” (Bioorg Med Chem, 2020)

How the values were obtained:
Estrogen receptor [1] = target: T1, Estrogen receptor (Homo sapiens, UniProt P03372)
T1 sequence (P03372 whole entry): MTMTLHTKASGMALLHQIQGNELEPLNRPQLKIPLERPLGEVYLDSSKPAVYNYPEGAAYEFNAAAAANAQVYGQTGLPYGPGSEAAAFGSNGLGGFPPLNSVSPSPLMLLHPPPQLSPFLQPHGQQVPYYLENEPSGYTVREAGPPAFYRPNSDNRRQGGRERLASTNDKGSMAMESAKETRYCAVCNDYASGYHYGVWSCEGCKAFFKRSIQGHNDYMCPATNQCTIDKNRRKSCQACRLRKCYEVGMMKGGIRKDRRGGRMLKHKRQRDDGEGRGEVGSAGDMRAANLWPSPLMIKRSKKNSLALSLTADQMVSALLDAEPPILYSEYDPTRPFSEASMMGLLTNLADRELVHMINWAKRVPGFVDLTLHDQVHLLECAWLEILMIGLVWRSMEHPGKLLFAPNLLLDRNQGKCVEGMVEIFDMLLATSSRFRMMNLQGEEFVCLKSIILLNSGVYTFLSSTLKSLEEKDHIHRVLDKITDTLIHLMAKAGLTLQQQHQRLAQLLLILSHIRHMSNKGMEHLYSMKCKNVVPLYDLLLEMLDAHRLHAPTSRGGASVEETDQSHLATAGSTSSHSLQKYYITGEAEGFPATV
Description: (§1) Antagonist activity at human Gal4-fused ERalpha expressed in HEK293 cells assessed as inhibition of E2-induced transcriptional activation after 24 hrs by luciferase/beta-galactosidase reporter gene assay

Estrogen receptor beta [2] = target: T2, Estrogen receptor beta (Homo sapiens, UniProt Q92731)
T2 sequence (Q92731 whole entry): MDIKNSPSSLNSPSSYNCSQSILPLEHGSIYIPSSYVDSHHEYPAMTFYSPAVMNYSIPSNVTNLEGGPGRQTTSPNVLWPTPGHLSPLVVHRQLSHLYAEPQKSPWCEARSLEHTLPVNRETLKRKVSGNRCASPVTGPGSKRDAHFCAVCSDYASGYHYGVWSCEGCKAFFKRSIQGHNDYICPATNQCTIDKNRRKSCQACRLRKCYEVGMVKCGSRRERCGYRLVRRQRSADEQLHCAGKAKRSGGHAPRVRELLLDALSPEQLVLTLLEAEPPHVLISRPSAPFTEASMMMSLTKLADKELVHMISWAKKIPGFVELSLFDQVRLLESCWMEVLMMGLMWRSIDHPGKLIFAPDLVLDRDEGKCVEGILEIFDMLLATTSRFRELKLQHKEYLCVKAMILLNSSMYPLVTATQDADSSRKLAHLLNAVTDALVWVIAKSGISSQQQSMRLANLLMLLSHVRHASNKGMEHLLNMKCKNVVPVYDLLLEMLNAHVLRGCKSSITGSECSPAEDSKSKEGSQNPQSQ
Description: (§2) Antagonist activity at human Gal4-fused ERbeta expressed in HEK293 cells assessed as inhibition of E2-induced transcriptional activation after 24 hrs by luciferase/beta-galactosidase reporter gene assay

Estrogen receptor [3] = target: T1, Estrogen receptor; details: hek293
Description: (§3) Agonist activity at human Gal4-fused ERalpha expressed in HEK293 cells assessed as transcriptional activation after 24 hrs by luciferase/beta-galactosidase reporter gene assay

physchem [4] = details: 1-octanol/water
Description: 1-Octanol-water partition coefficient, log P of the compound by HPLC analysis

physchem [5] = assay: physchem
Description: Acid dissociation constant, pKa of the compound by UV spectral absorption analysis

Estrogen receptor [6] = target: T1, Estrogen receptor; details: hek293; remark: listed apart in the source
Description: as §1

Estrogen receptor beta [7] = target: T2, Estrogen receptor beta; details: hek293
Description: as §2

[8] = target: T3, Estrogen receptor (Homo sapiens) (UniProt P03372); assay: Agonist activity at human Gal4-fused ERalpha expressed in HEK293 cells assessed as transcriptional activation at 30 uM after 24 hrs by luciferase/beta-galactosidase reporter gene assay relative to estradiol; format: cell-based
T3 sequence (whole entry): T1 sequence (P03372 whole entry)

Estrogen receptor beta [9] = target: T2, Estrogen receptor beta; assay: Agonist activity at human Gal4-fused ERbeta expressed in HEK293 cells assessed as transcriptional activation at 30 uM after 24 hrs by luciferase/beta-galactosidase reporter gene assay relative to estradiol; format: cell-based
Estrogen receptor [10] = target: T1, Estrogen receptor; remark: listed apart in the source
Description: as §3

Estrogen receptor beta [11] = target: T2, Estrogen receptor beta; assay: Antagonist activity at human Gal4-fused ERbeta expressed in HEK293 cells assessed as inhibition of E2-induced transcriptional activation at 30 uM after 24 hrs by luciferase/beta-galactosidase reporter gene assay relative to control; format: cell-based

Row | EC50 (Estrogen receptor [10]) [µM] | Structure (SMILES) | IC50 (Estrogen receptor [1]) [µM] | IC50 (Estrogen receptor beta [2]) [µM] | EC50 (Estrogen receptor [3]) | logP (physchem [4]) | pKa (physchem [5]) | IC50 (Estrogen receptor [6]) | IC50 (Estrogen receptor beta [7]) | Activity [8] [%] | Activity (Estrogen receptor beta [9]) [%] | inhibition (Estrogen receptor beta [11]) [%]
1 | – | B.Oc1ccc(P(c2ccccc2)c2ccccc2)cc1 | 12 | 2 | Not Active | 4.96 | 8.81 | – | – | – | – | –
2 | – | CP(c1ccccc1)c1ccc(O)cc1 (stereo unspecified) | – | – | Not Active | 3.67 | 9.49 | Not Active | Not Active | – | – | –
3 | – | Oc1ccc(P(c2ccccc2)c2ccccc2)cc1 | – | – | Not Active | 5.06 | 9.48 | Not Active | Not Active | – | – | –
4 | – | CP(=S)(c1ccccc1)c1ccc(O)cc1 (stereo unspecified) | – | – | – | 2.69 | 8.65 | Not Active | Not Active | 24 | 24 | –
5 | > 30 | C[Si](C)(c1ccccc1)c1ccc(O)cc1 | 13 | 5 | – | 4.8 | 10.2 | – | – | – | 20 | –
6 | – | B.CP(c1ccccc1)c1ccc(O)cc1 (stereo unspecified) [listing 1 of 2 here] | 9.8 | 2.5 | Not Active | 3.38 | 8.83 | – | – | – | – | –
7 | – | O=P(c1ccccc1)(c1ccccc1)c1ccc(O)cc1 | – | – | Not Active | 3.22 | 8.51 | Not Active | Not Active | – | – | –
8 | – | Oc1ccc(P(=S)(c2ccccc2)c2ccccc2)cc1 | 20 | 13 | Not Active | 4.08 | 8.6 | – | – | – | – | –
9 | – | CP(=[Se])(c1ccccc1)c1ccc(O)cc1 (stereo unspecified) | – | – | Not Active | 3.27 | 8.64 | Not Active | – | – | 24 | 30
10 | 19 | CP(=O)(c1ccccc1)c1ccc(O)cc1 (stereo unspecified) | – | – | – | 1.88 | 8.63 | Not Active | Not Active | – | 36 | –
11 | – | B.CP(c1ccccc1)c1ccc(O)cc1 (stereo unspecified) [listing 2 of 2 here] | – | – | – | – | – | – | – | – | 16 | –

Row | Structure (SMILES) | EC50 (Estrogen receptor [10]) [µM] | IC50 (Estrogen receptor [1]) [µM] | IC50 (Estrogen receptor beta [2]) [µM] | EC50 (Estrogen receptor [3]) | logP (physchem [4]) | pKa (physchem [5]) | IC50 (Estrogen receptor [6]) | IC50 (Estrogen receptor beta [7]) | Activity [8] [%] | Activity (Estrogen receptor beta [9]) [%] | inhibition (Estrogen receptor beta [11]) [%]
12 | CC(C)(c1ccccc1)c1ccc(O)cc1 | 4.4 | 24 | 13 | – | 4.2 | 10.6 | – | – | – | 38 | –
